Results from US12421211B2, “Heterocyclic compounds” (Hoffmann-La Roche Inc., priority 2021, dated 2025).
Where a name gives a salt, the structure may show the parent alone.

test system: Acinetobacter baumannii ATCC17961; experiment: Antimicrobial susceptibility testing: 90% growth inhibitory concentration (IC90) determination; type: cell-based; settings: Acinetobacter baumannii, ATCC17961, 16 h, 90% growth inhibitory concentration, Acinetobacter baumannii ATCC17961, Iso-Sensitest broth, OD 600 nm over 16 h; read-out: ATCC 17961 IC90
Description: Assay Procedures Antimicrobial Susceptibility Testing: 90% Growth Inhibitory Concentration (IC90) Determination
The in vitro antimicrobial activity of the compounds was determined according to the following procedure:
The assay used a 10-points Iso-Sensitest broth medium to measure quantitatively the in vitro activity of the compounds against Acinetobacter baumannii ATCC17961.
Stock compounds in DMSO were serially twofold diluted (e.g. range from 50 to 0.097 μM final concentration) in 384 wells microtiter plates and inoculated with 49 μl the bacterial suspension in Iso-Sensitest medium to have a final cell concentration of ˜5×10^(5) CFU/ml in a final volume/well of 50 ul/well. Microtiter plates were incubated at 35±2° C.
Bacterial cell growth was determined with the measurement of optical density at λ=600 nm each 20 minutes over a time course of 16h. Growth inhibition was calculated during the logarithmic growth of the bacterial cells with determination of the concentration inhibiting 50% (IC50) and 90% (IC90) of the growth.
Table 1 provides the 90% growth inhibitory concentrations (IC90) in micromoles per liter of the compounds of present invention obtained against the strain Acinetobacter baumannii ATCC17961.

| Compound | IC90 |
| --- | --- |
| Cn1c(-c2ccc(-c3ccc(NCCC(N)=O)cn3)c(F)c2F)cnc1C(=O)Nc1ccc(C(=O)N2CCN(C(=O)C3CC[N+](C)(C)CC3)CC2)c(Cl)c1 [Example F63, 5-[4-[5-[(3-amino-3-oxo-propyl)amino]-2-pyridyl]-2,3-difluoro-phenyl]-N-[3-chloro-4-[4-(1,1-dimethylpiperidin-1-ium-4-carbonyl)piperazine-1-carbonyl]phenyl]-1-methyl-imidazole-2-carboxamide; formate] | 0.56 µM |
| COCCn1ncc(-c2ccc(-c3cnc(C(=O)Nc4ccc(C(=O)N5CCN(C(=O)C6CC[N+](C)(C)CC6)CC5)c(Cl)c4)n3C)c(Cl)c2F)c1C [Example F2, N-[3-chloro-4-[4-(1,1-dimethylpiperidin-1-ium-4-carbonyl)piperazine-1-carbonyl]phenyl]-5-[2-chloro-3-fluoro-4-[1-(2-methoxyethyl)-5-methyl-pyrazol-4-yl]phenyl]-1-methyl-imidazole-2-carboxamide; formate] | 0.065 µM |
| COc1cccc(CCn2cc(-c3ccc(-c4cnc(C(=O)Nc5ccc(C(=O)N6CCN(C(=O)C7CC[N+](C)(C)CC7)CC6)c(Cl)c5)n4C)c(F)c3F)c(C)n2)n1 [Example F54, N-[3-chloro-4-[4-(1,1-dimethylpiperidin-1-ium-4-carbonyl)piperazine-1-carbonyl]phenyl]-5-[2,3-difluoro-4-[1-[2-(6-methoxy-2-pyridyl)ethyl]-3-methyl-pyrazol-4-yl]phenyl]-1-methyl-imidazole-2-carboxamide; formate] | 0.59 µM |
| Cc1n[nH]c(C)c1-c1ccc(-c2cnc(C(=O)Nc3ccc(C(=O)N4CCN(C(=O)CN(C)C)CC4)c(Cl)c3)n2C)cc1 [Example E16, N-[3-chloro-4-[4-[2-(dimethylamino)acetyl]piperazine-1-carbonyl]phenyl]-5-[4-(3,5-dimethyl-1H-pyrazol-4-yl)phenyl]-1-methyl-imidazole-2-carboxamide] | 0.23 µM |
| Cc1nn(Cc2c[nH]nn2)cc1-c1ccc(-c2cnc(C(=O)Nc3ccc(C(=O)N4CCN(C(=O)C5CC[N+](C)(C)CC5)CC4)c(Cl)c3)n2C)c(F)c1F [Example F56, N-[3-chloro-4-[4-(1,1-dimethylpiperidin-1-ium-4-carbonyl)piperazine-1-carbonyl]phenyl]-5-[2,3-difluoro-4-[3-methyl-1-(1H-triazol-4-ylmethyl)pyrazol-4-yl]phenyl]-1-methyl-imidazole-2-carboxamide; formate] | 0.33 µM |
| COCCn1ncc(-c2ccc(-c3cnc(C(=O)Nc4ccc(C(=O)N5CCN(C(=O)CCC[N+](C)(CCCN)CC(=O)O)CC5)c(Cl)c4)n3C)c(C)c2F)c1C (centres unmarked) [Example O5, 3-aminopropyl-(carboxymethyl)-[4-[4-[2-chloro-4-[[5-[3-fluoro-4-[1-(2-methoxyethyl)-5-methyl-pyrazol-4-yl]-2-methyl-phenyl]-1-methyl-imidazole-2-carbonyl]amino]benzoyl]piperazino]-4-keto-butyl]-methyl-ammonium. 1:12,2,2-trifluoroacetic acid; 2,2,2-trifluoroacetate] | 0.2 µM |
| Cc1nn(CC(=O)Nc2ccc(C(=O)N3CC[N+](C)(C)CC3)cc2)cc1-c1ccc(-c2cnc(C(=O)Nc3ccc(C(=O)N4CCN(C(=O)C5CC[N+](C)(C)CC5)CC4)c(Cl)c3)n2C)c(F)c1F [Example G30, N-[3-chloro-4-[4-(1,1-dimethylpiperidin-1-ium-4-carbonyl)piperazine-1-carbonyl]phenyl]-5-[4-[1-[2-[4-(4,4-dimethylpiperazin-4-ium-1-carbonyl)anilino]-2-oxo-ethyl]-3-methyl-pyrazol-4-yl]-2,3-difluoro-phenyl]-1-methyl-imidazole-2-carboxamide; diformate] | 1 µM |
| COCCn1ncc(-c2ccc(-c3cnc(C(=O)Nc4ccc(C(=O)N5CCN(C(=O)CN(C)C)CC5)c(Cl)c4)n3C)c(F)c2F)c1C [Example D32, N-[3-chloro-4-[4-[2-(dimethylamino)acetyl]piperazine-1-carbonyl]phenyl]-5-[2,3-difluoro-4-[1-(2-methoxyethyl)-5-methyl-pyrazol-4-yl]phenyl]-1-methyl-imidazole-2-carboxamide; 2,2,2-trifluoroacetic acid] | 0.052 µM |
| Cc1nn(CCCO)cc1-c1ccc(-c2cnc(C(=O)Nc3ccc(C(=O)N4CCN(C(=O)[C@@H]5C[C@@H](O)C[N+]5(C)C)CC4)c(Cl)c3)n2C)c(F)c1F [Example F16, N-[3-chloro-4-[4-[(2S,4R)-4-hydroxy-1,1-dimethyl-pyrrolidin-1-ium-2-carbonyl]piperazine-1-carbonyl]phenyl]-5-[2,3-difluoro-4-[1-(3-hydroxypropyl)-3-methyl-pyrazol-4-yl]phenyl]-1-methyl-imidazole-2-carboxamide; formate] | 0.24 µM |
| Cc1nn(CCOC(F)F)c(C)c1-c1ccc(-c2cnc(C(=O)Nc3ccc(C(=O)N4CCN(C(=O)C5C[C@@H](O)C[N+]5(C)C)CC4)c(Cl)c3)n2C)c(F)c1F (stereo partly drawn) [Example K2, N-[3-chloro-4-[4-[(4R)-4-hydroxy-1,1-dimethyl-pyrrolidin-1-ium-2-carbonyl]piperazine-1-carbonyl]phenyl]-5-[4-[1-2-(difluoromethoxy)ethyl]-3,5-dimethyl-pyrazol-4-yl]-2,3-difluoro-phenyl]-1-methyl-imidazole-2-carboxamide; formate] | 0.36 µM |
| Cc1nn(CCOCCN)c(C)c1-c1ccc(-c2cnc(C(=O)Nc3ccc(C(=O)N4CCN(C(=O)[C@@H]5C[C@@H](O)C[N+]5(C)C)CC4)c(Cl)c3)n2C)c(F)c1F [Example K1, 5-[4-[1-[2-(2-aminoethoxy)ethyl]-3,5-dimethyl-pyrazol-4-yl]-2,3-difluoro-phenyl]-N-[3-chloro-4-[4-[(2S,4R)-4-hydroxy-1,1-dimethyl-pyrrolidin-1-ium-2-carbonyl]piperazine-1-carbonyl]phenyl]-1-methyl-imidazole-2-carboxamide; 2,2,2-trifluoroacetate] | 0.6 µM |
| Cc1nn(CC(=O)Nc2cccnc2)cc1-c1ccc(-c2cnc(C(=O)Nc3ccc(C(=O)N4CCN(C(=O)C5CC[N+](C)(C)CC5)CC4)c(Cl)c3)n2C)c(F)c1F [Example G27, N-[3-chloro-4-[4-(1,1-dimethylpiperidin-1-ium-4-carbonyl)piperazine-1-carbonyl]phenyl]-5-[2,3-difluoro-4-[3-pyridylamino)ethyl] pyrazol-4-yl]phenyl]-1-methyl-imidazole-2-carboxamide; formate] | 0.12 µM |
| COCCn1cc(-c2ccc(-c3cnc(C(=O)Nc4ccc(C(=O)N5CCN(C(=O)[C@@H]6[C@@H](O)CC[N+]6(C)C)CC5)c(Cl)c4)n3C)c(F)c2F)c(C)n1 [Example D1, N-[3-chloro-4-[4-[(2S,3S)-3-hydroxy-1,1-dimethyl-pyrrolidin-1-ium-2-carbonyl]piperazine-1-carbonyl]phenyl]-5-[2,3-difluoro-4-[1l-(2-methoxyethyl)-3-methyl-pyrazol-4-yl]phenyl]-1-methyl-imidazole-2-carboxamide; formate] | 0.28 µM |

same assay, conditions: Acinetobacter baumannii, ATCC17961, 16 h, read-out: ATCC 17961 IC90

| Compound | IC90 |
| --- | --- |
| COCCn1cc(-c2ccc(-c3cnc(C(=O)Nc4ccc(C(=O)N5CCN(C(=O)C[N+]6(C)CC[C@@H](O)C6)CC5)c(Cl)c4)n3C)c(F)c2F)c(C)n1 (stereo partly drawn) [Example C8, N-[3-chloro-4-[4-[2-[(3R)-3-hydroxy-1-methyl-pyrrolidin-1-ium-1-yl]acetyl]piperazine-1-carbonyl]phenyl]-5-[2,3-difluoro-4-[1-(2-methoxyethyl)-3-methyl-pyrazol-4-yl]phenyl]-1-methyl-imidazole-2-carboxamide; formate] | 0.21 µM |
| COCCn1cc(-c2ccc(-c3cnc(C(=O)Nc4ccc(C(=O)N5CCN(C(=O)C6CC[N+]7(CC6)CCN(Cc6ccccc6)CC7)CC5)c(Cl)c4)n3C)c(F)c2F)c(C)n1 [Example Q2, N-[4-[4-(3-benzyl-3-aza-6-azoniaspiro[5.5]undecane-9-carbonyl)piperazine-1-carbonyl]-3-chloro-phenyl]-5-[2,3-difluoro-4-[1-(2-methoxyethyl)-3-methyl-pyrazol-4-yl]phenyl]-1-methyl-imidazole-2-carboxamide] | 0.705 µM |
| COCCn1ncc(-c2ccc(-c3cnc(C(=O)Nc4ccc(C(=O)N5CCN(C(=O)C6CC[N+](C)(CC(F)F)CC6)CC5)c(Cl)c4)n3C)c(F)c2F)c1C (centres unmarked) [Example B32, N-[3-chloro-4-[4-[1-(2,2-difluoroethyl)-1-methyl-piperidin-1-ium-4-carbonyl]piperazine-1-carbonyl]phenyl]-5-[2,3-difluoro-4-[1-(2-methoxyethyl)-5-methyl-pyrazol-4-yl]phenyl]-1-methyl-imidazole-2-carboxamide; 2,2,2-trifluoroacetate] | 0.058 µM |
| COCCn1nc(C)c(-c2ccc(-c3cnc(C(=O)Nc4ccc(C(=O)N5CCN(C(=O)C6CC[N+](C)(CC(N)=O)CC6)CC5)c(Cl)c4)n3C)cc2)c1C (centres unmarked) [Example B10, N-[4-[4-[1-(2-amino-2-oxo-ethyl)-1-methyl-piperidin-1-ium-4-carbonyl]piperazine-1-carbonyl]-3-chloro-phenyl]-5-[4-[1-(2-methoxyethyl)-3,5-dimethyl-pyrazol-4-yl]phenyl]-1-methyl-imidazole-2-carboxamide; formate] | 0.2 µM |
